Consider 13 molecules from patent publication US8501708B2, “Adenosine compounds and their use thereof” (Inotek Pharmaceuticals Corporation, priority 2011, dated 2013).

The target of assay [1] is human recombinant A1 adenosine receptor (Homo sapiens (Human), UniProt P30542). The assay is described as follows: Adenosine receptor binding, displacement of specific [3H]CCPA binding. The conditions noted are these: [3H]CCPA displacement, CHO cells stably transfected with human recombinant A1 adenosine receptor. From the text:
(§1) The compounds were studied in binding assays to determine their selectivity and potency to the A1, A2a and A3 adenosine receptors.

The target of assay [2] is human recombinant A2A adenosine receptor (Homo sapiens (Human), UniProt P29274). In words: Adenosine receptor binding, displacement of specific [3H]NECA binding. Particulars: [3H]NECA displacement, CHO cells stably transfected with human recombinant A2A adenosine receptor.
human recombinant A2A adenosine receptor, sequence (P29274 whole entry): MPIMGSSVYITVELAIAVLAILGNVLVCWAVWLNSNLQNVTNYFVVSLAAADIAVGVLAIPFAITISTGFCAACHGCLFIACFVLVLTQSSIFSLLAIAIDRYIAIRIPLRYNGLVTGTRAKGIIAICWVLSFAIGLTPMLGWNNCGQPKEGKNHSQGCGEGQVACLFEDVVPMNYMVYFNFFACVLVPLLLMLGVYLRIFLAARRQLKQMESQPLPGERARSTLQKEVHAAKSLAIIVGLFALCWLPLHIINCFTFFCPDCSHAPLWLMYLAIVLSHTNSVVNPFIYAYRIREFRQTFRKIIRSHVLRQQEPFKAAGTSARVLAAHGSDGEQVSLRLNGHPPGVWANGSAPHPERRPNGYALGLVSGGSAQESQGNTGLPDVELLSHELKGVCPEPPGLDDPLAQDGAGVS
From the text: as §1

In assay [3] the target is human recombinant A3 adenosine receptor (Homo sapiens (Human), UniProt P0DMS8). Described as above. The conditions noted are these: [3H]NECA displacement, CHO cells stably transfected with human recombinant A3 adenosine receptor.
human recombinant A3 adenosine receptor, sequence (P0DMS8 whole entry): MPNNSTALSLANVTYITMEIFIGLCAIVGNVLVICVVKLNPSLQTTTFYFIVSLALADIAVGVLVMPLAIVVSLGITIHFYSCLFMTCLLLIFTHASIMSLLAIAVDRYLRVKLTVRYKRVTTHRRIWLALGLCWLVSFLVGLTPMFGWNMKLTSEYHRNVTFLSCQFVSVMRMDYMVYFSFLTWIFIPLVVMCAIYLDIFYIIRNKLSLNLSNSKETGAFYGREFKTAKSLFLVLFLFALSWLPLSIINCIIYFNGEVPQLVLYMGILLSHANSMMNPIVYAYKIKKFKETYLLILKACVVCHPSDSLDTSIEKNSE
From the text: as §1

Assay [4] concerns ocular normotensive Dutch-Belted rabbits. In words: Changes in intraocular pressure after topical administration to the eye. It counts as in vivo, rabbit. The conditions noted are these: for changes in IOP relative to baseline after dosing (in words): 0-6 hours. On the procedure: The study involved groups of eight rabbits and the rabbits were acclimated for two days before they received a single dose in either the right eye or left eye of the HPCD control. The IOP of the groups of rabbits were recorded at 0, 1, 2, 4 and 6 hours after dosing of the control.

human recombinant A1 adenosine receptor, sequence (P30542 whole entry): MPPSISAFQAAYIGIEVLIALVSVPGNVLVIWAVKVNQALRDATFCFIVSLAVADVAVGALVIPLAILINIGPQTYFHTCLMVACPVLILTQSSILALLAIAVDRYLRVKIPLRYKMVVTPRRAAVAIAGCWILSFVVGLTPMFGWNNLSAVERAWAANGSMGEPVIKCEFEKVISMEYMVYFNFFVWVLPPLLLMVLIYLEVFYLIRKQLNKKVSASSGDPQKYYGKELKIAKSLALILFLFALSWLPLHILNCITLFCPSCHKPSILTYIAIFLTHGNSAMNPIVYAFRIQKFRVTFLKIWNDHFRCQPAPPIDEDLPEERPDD

In the case of `Cc1ccc(CO[C@H]2CCC[C@@H]2Nc2ncnc3c2ncn3[C@@H]2O[C@H](CO)[C@@H](O)[C@H]2O)cc1` [Compound 3, (2R,3S,4R,5R)-2-(hydroxymethyl)-5-(6-((1S,2S)-2-(4-methylbenzyloxy)cyclopentylamino)-9H-purin-9-yl)tetrahydrofuran-3,4-diol], the Ki – broadly, a measure of affinity in units of concentration, obtained from inhibition or displacement – came out at 29 nM in assay [1], 25400 nM in assay [2] and 2550 nM in assay [3].

With `OC[C@H]1OC(n2cnc3c(NC4CCCCC4OCc4ccccc4)ncnc32)[C@H](O)[C@@H]1O` (stereo partly shown) [Compound 4], in assay [3], the Ki is > 100000 nM.

On to `OC[C@H]1OC(n2cnc3c(NC4CCCCC4OCc4ccccc4)ncnc32)[C@H](O)[C@@H]1O` (stereo partly shown) [Compound 5], for which, in assay [3], the Ki is > 100000 nM.

For `Cc1cccc(CO[C@H]2CCC[C@@H]2Nc2ncnc3c2ncn3[C@@H]2O[C@H](CO)[C@@H](O)[C@H]2O)c1` [Compound 6, (2R,3S,4R,5R)-2-(hydroxymethyl)-5-(6-((1S,2S)-2-(3-methylbenzyloxy)cyclopentylamino)-9H-purin-9-yl)tetrahydrofuran-3,4-diol], the Ki in assay [1] is 2.79 nM; in assay [2], 5320 nM; in assay [3], 1350 nM.

Turning to `Cc1ccccc1CO[C@H]1CCC[C@@H]1Nc1ncnc2c1ncn2[C@@H]1O[C@H](CO)[C@@H](O)[C@H]1O` [Compound 7, (2R,3S,4R,5R)-2-(hydroxymethyl)-5-(6-((1S,2S)-2-(2-methylbenzyloxy)cyclopentylamino)-9H-purin-9-yl)tetrahydrofuran-3,4-diol], the inhibition constant (Ki) in assay [1] is 12.6 nM; in assay [2] it was 7330 nM; in assay [3] it was 1570 nM.

Take `OC[C@H]1O[C@@H](n2cnc3c(N[C@H]4CCC[C@@H]4OCc4cccc(F)c4)ncnc32)[C@H](O)[C@@H]1O` [Compound 8, (2R,3R,4S,5R)-2-(6-((1S,2S)-2-(3-fluorobenzyloxy)cyclopentylamino)-9H-purin-9-yl)-5-(hydroxymethyl)tetrahydrofuran-3,4-diol]: the inhibition constant Ki in assay [2] was found to be 5540 nM; in assay [3], 1630 nM.

Regarding `OC[C@H]1OC(n2cnc3c(NC4CCC[C@@H]4OCc4ccc(F)cc4)ncnc32)[C@H](O)[C@@H]1O` (stereo partly shown) [Compound 9], the Ki is 11400 nM in assay [2] and 1870 nM in assay [3].

`OC[C@H]1O[C@@H](n2cnc3c(N[C@H]4CCC[C@@H]4OCc4cccc(I)c4)ncnc32)[C@H](O)[C@@H]1O` [Compound 11, (2R,3S,4R,5R)-2-(hydroxymethyl)-5-(6-((1S,2S)-2-(3-iodobenzyloxy)cyclopentylamino)-9H-purin-9-yl)tetrahydrofuran-3,4-diol]: the “changes in IOP relative to baseline after dosing (in words)” value in assay [4] (topical single dose 200 mcg) is on record as “do not show significant changes in IOP”. In addition, the Ki in assay [3] came to 1290 nM.

For the molecule `Cc1cccc(CO[C@@H]2CCC[C@H]2Nc2ncnc3c2ncn3[C@@H]2O[C@H](CO)[C@@H](O)[C@H]2O)c1` [Compound 17, (2R,3S,4R,5R)-2-(hydroxymethyl)-5-(6-((1R,2R)-2-(3-methylbenzyloxy)cyclopentylamino)-9H-purin-9-yl)tetrahydrofuran-3,4-diol], the Ki is 2.65 nM in assay [1], 3370 nM in assay [2] and 2620 nM in assay [3]. Also, in assay [4] (topical single dose 200 mcg), the “changes in IOP relative to baseline after dosing (in words)” value is recorded as “do not show significant changes in IOP”.

Turning to `Cc1ccccc1CO[C@@H]1CCC[C@H]1Nc1ncnc2c1ncn2[C@@H]1O[C@H](CO)[C@@H](O)[C@H]1O` [Compound 18, (2R,3S,4R,5R)-2-(hydroxymethyl)-5-(6-((1R,2R)-2-(2-methylbenzyloxy)cyclopentylamino)-9H-purin-9-yl)tetrahydrofuran-3,4-diol], the Ki came to 2.28 nM in assay [1], 422 nM in assay [2] and 5100 nM in assay [3]. In assay [4] (topical single dose 200 mcg), the “return of IOP to baseline levels, time post dosing” value worked out at 6 h. The “reduction of IOP” value in assay [4] (topical single dose 200 mcg in HPCD formulation, 2 hours post dosing) came out at 20%.

With `OC[C@H]1O[C@@H](n2cnc3c(N[C@@H]4CCC[C@H]4OCc4cccc(F)c4)ncnc32)[C@H](O)[C@@H]1O` [Compound 19, (2R,3R,4S,5R)-2-(6-((1R,2R)-2-(3-fluorobenzyloxy)cyclopentylamino)-9H-purin-9-yl)-5-(hydroxymethyl)tetrahydrofuran-3,4-diol], the Ki in assay [2] came to 2550 nM; in assay [3] it was 4040 nM.

For the molecule `OC[C@H]1O[C@@H](n2cnc3c(N[C@@H]4CCC[C@H]4OCc4ccc(F)cc4)ncnc32)[C@H](O)[C@@H]1O` [Compound 20, (2R,3R,4S,5R)-2-(6-((1R,2R)-2-(4-fluorobenzyloxy)cyclopentylamino)-9H-purin-9-yl)-5-(hydroxymethyl)tetrahydrofuran-3,4-diol], the Ki in assay [2] amounted to 3780 nM; in assay [3] it was 3710 nM.

For the molecule `OC[C@H]1O[C@@H](n2cnc3c(N[C@@H]4CCC[C@H]4OCc4cccc(I)c4)ncnc32)[C@H](O)[C@@H]1O` [Compound 22, (2R,3S,4R,5R)-2-(hydroxymethyl)-5-(6-((1R,2R)-2-(3-iodobenzyloxy)cyclopentylamino)-9H-purin-9-yl)tetrahydrofuran-3,4-diol], the Ki in assay [3] came out at 551 nM.
